Consider 15 compounds from PubChem BioAssay AID248 (DTP/NCI, 2004).

The test system of the assay is L1210 leukemia ip in BDF1 mice, survival T/C. Description: NCI In Vivo Anticancer Drug Screen. Data for tumor model L1210 Leukemia (intraperitoneal) in B6D2F1 (BDF1) mice. The note with it: endpoint: mean survival time, higher = longer survival. An outline of the steps:
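Transplantable tumor model; survival measured in treated vs vehicle control mice. Value = treated/control.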

Setting [1] is: dose: 100.0 mg/kg/injection, schedule: Q01DX009 (ip), vehicle: saline with Tween-80.
The mark [2] stands for this setting: dose: 200.0 mg/kg/injection, schedule: Q01DX009 (ip), vehicle: saline with Tween-80.
Setting [3] is: dose: 400.0 mg/kg/injection, schedule: Q01DX009 (ip), vehicle: saline with Tween-80.
Setting [4] is: dose: 100.0 mg/kg/injection, schedule: Q01DX009 (ip), vehicle: Klucel (hydroxypropylcellulose) (HPC).
Setting [5] is: dose: 200.0 mg/kg/injection, schedule: Q01DX009 (ip), vehicle: Klucel (hydroxypropylcellulose) (HPC).
Where [6] appears, read: dose: 400.0 mg/kg/injection, schedule: Q01DX009 (ip), vehicle: Klucel (hydroxypropylcellulose) (HPC).
Where [7] appears, read: dose: 100.0 mg/kg/injection, schedule: Q01DX001 (ip), vehicle: carboxymethylcellulose (CMC).
Setting [8] is: dose: 200.0 mg/kg/injection, schedule: Q01DX001 (ip), vehicle: carboxymethylcellulose (CMC).
The mark [9] stands for this setting: dose: 200.0 mg/kg/injection, schedule: Q04DX003 (ip), vehicle: saline with Tween-80.
Where [10] appears, read: dose: 400.0 mg/kg/injection, schedule: Q04DX003 (ip), vehicle: saline with Tween-80.
Where [11] appears, read: dose: 100.0 mg/kg/injection, schedule: Q04DX003 (ip), vehicle: Klucel (hydroxypropylcellulose) (HPC).
Setting [12] is: dose: 200.0 mg/kg/injection, schedule: Q04DX003 (ip), vehicle: Klucel (hydroxypropylcellulose) (HPC).
Setting [13] is: dose: 400.0 mg/kg/injection, schedule: Q04DX003 (ip), vehicle: Klucel (hydroxypropylcellulose) (HPC).
Where [14] appears, read: dose: 400.0 mg/kg/injection, schedule: Q01DX001 (ip), vehicle: carboxymethylcellulose (CMC).

“And” between values parts separate entries of the source, which are not always exact repeats. Identical values can stand only once. Inconclusive results and toxic doses are left out.

In the case of `Clc1nc(N2CC2)nc(N2CC2)c1Br`, the T/C reads like this: (dose: 0.2 mg/kg/injection, schedule: Q01DX Z (ip), vehicle: methylcellulose (MC)) 88 % of control; (dose: 0.5 mg/kg/injection, schedule: Q01DX Z (ip), vehicle: methylcellulose (MC)) 104 % of control.
For the compound `CCC(=O)c1ccc(OCC(O)CN2CCN(c3ccccc3Cl)CC2)cc1` (stereo not drawn), the T/C (dose: 100.0 mg/kg/injection, schedule: Q01DX001 (ip), vehicle: saline with Tween-80) is 101 % of control; the T/C under setting [1] was 95 % of control; the T/C (dose: 200.0 mg/kg/injection, schedule: Q01DX001 (ip), vehicle: saline with Tween-80) was 104 % of control; the T/C under setting [2] was 95 % of control; the T/C (dose: 400.0 mg/kg/injection, schedule: Q01DX001 (ip), vehicle: saline with Tween-80) is 102 % of control; the T/C under setting [3] was 88 % of control.
For `NCS(=O)(=O)O`, the T/C runs as follows: (dose: 25.0 mg/kg/injection, schedule: Q01DX001 (ip), vehicle: saline with Tween-80) 107 % of control; (dose: 50.0 mg/kg/injection, schedule: Q01DX001 (ip), vehicle: saline with Tween-80) 107 % of control; under setting [4], 98 % of control; (dose: 100.0 mg/kg/injection, schedule: Q01DX009 (ip), vehicle: saline) 100 % of control; under setting [5], 98 % of control; (dose: 200.0 mg/kg/injection, schedule: Q01DX009 (ip), vehicle: saline) 93 % of control. Also, the T/C runs as follows: under setting [6], 95 % of control; (dose: 400.0 mg/kg/injection, schedule: Q01DX009 (ip), vehicle: saline) 88 % of control.
As for `Nc1cc([N+](=O)[O-])cc([N+](=O)[O-])c1`, the T/C by setting is: (dose: 50.0 mg/kg/injection, schedule: Q01DX001 (ip), vehicle: carboxymethylcellulose (CMC)) 109 % of control; under setting [7], 118 % of control; under setting [8], 113 % of control.
Take `O=C(Nc1ccc(C2=NCCN2)cc1)C1CCC(C(=O)Nc2ccc(C3=NCCN3)cc2)CC1` (stereo not drawn): the T/C is 103 % of control (dose: 0.46 mg/kg/injection, schedule: Q01DX Z (ip), vehicle: carboxymethylcellulose (CMC)); 112 % of control (dose: 0.93 mg/kg/injection, schedule: Q01DX Z (ip), vehicle: carboxymethylcellulose (CMC)); 152 % of control (dose: 3.75 mg/kg/injection, schedule: Q01DX Z (ip), vehicle: carboxymethylcellulose (CMC)); 197 % of control (dose: 11.0 mg/kg/injection, schedule: Q01DX015 (ip), vehicle: methylcellulose (MC)); 227 % of control (dose: 15.0 mg/kg/injection, schedule: Q01DX Z (ip), vehicle: carboxymethylcellulose (CMC)); 262 % of control (dose: 22.0 mg/kg/injection, schedule: Q01DX015 (ip), vehicle: methylcellulose (MC)). Besides, the T/C is, setting by setting: (dose: 30.0 mg/kg/injection, schedule: Q01DX Z (ip), vehicle: carboxymethylcellulose (CMC)) 250 % of control; (dose: 31.0 mg/kg/injection, schedule: Q01DX015 (ip), vehicle: methylcellulose (MC)) 284 % of control; (dose: 45.0 mg/kg/injection, schedule: Q01DX015 (ip), vehicle: methylcellulose (MC)) 335 % of control; (dose: 60.0 mg/kg/injection, schedule: Q01DX Z (ip), vehicle: carboxymethylcellulose (CMC)) 173 % of control; (dose: 62.0 mg/kg/injection, schedule: Q01DX015 (ip), vehicle: methylcellulose (MC)) 229 % of control; (dose: 125.0 mg/kg/injection, schedule: Q01DX015 (ip), vehicle: methylcellulose (MC)) 201 % of control. The T/C runs as follows: (dose: 125.0 mg/kg/injection, schedule: Q01DX Z (ip), vehicle: carboxymethylcellulose (CMC)) 102 % of control; (dose: 250.0 mg/kg/injection, schedule: Q01DX001 (ip), vehicle: methylcellulose (MC)) 178 % of control; (dose: 250.0 mg/kg/injection, schedule: Q01DX015 (ip), vehicle: methylcellulose (MC)) 160 % of control; (dose: 750.0 mg/kg/injection, schedule: Q01DX001 (ip), vehicle: methylcellulose (MC)) 243 % of control; (dose: 1500.0 mg/kg/injection, schedule: Q01DX001 (ip), vehicle: methylcellulose (MC)) 202 % of control and 239 % of control and 253 % of control.
For `O=C(Nc1ccccc1-c1ccc([N+](=O)[O-])cc1)c1cccc2ccccc12`, the T/C under setting [9] was 87 % of control and the T/C under setting [10] was 90 % of control.
For `Cc1ccc(S/C=C/Sc2ccc(C)cc2)cc1`, the T/C by setting is: (dose: 100.0 mg/kg/injection, schedule: Q04DX002 (ip), vehicle: Klucel (hydroxypropylcellulose) (HPC)) 99 % of control; (dose: 200.0 mg/kg/injection, schedule: Q04DX002 (ip), vehicle: Klucel (hydroxypropylcellulose) (HPC)) 99 % of control; (dose: 400.0 mg/kg/injection, schedule: Q04DX002 (ip), vehicle: Klucel (hydroxypropylcellulose) (HPC)) 99 % of control.
For `O=C(Nc1ccc(F)cc1)Nc1cc([N+](=O)[O-])ccc1F`, the T/C by setting is: under setting [11], 117 % of control; under setting [12], 102 % of control; under setting [13], 101 % of control.
Turning to `O=S(=O)(O)Nc1cccc(Cl)c1`, the T/C (dose: 100.0 mg/kg/injection, schedule: Q04DX002 (ip), vehicle: saline with Tween-80) is 100 % of control; the T/C (dose: 200.0 mg/kg/injection, schedule: Q04DX002 (ip), vehicle: saline with Tween-80) was 111 % of control; the T/C (dose: 400.0 mg/kg/injection, schedule: Q04DX002 (ip), vehicle: saline with Tween-80) is 88 % of control.
In the case of `CCN(CC)CCOc1ccccc1Br`, the T/C by setting is: (dose: 12.5 mg/kg/injection, schedule: Q04DX003 (ip), vehicle: saline) 97 % of control; (dose: 25.0 mg/kg/injection, schedule: Q01DX009 (ip), vehicle: saline) 95 % of control; (dose: 25.0 mg/kg/injection, schedule: Q04DX003 (ip), vehicle: saline) 96 % of control; (dose: 50.0 mg/kg/injection, schedule: Q01DX009 (ip), vehicle: saline) 98 % of control; (dose: 50.0 mg/kg/injection, schedule: Q04DX003 (ip), vehicle: saline) 97 % of control; (dose: 100.0 mg/kg/injection, schedule: Q04DX003 (ip), vehicle: saline) 100 % of control.
`CCOC(=O)/C=N/Nc1ccc([N+](=O)[O-])cc1[N+](=O)[O-]`: the T/C is, setting by setting: (dose: 50.0 mg/kg/injection, schedule: Q01DX001 (ip), vehicle: other) 95 % of control; (dose: 100.0 mg/kg/injection, schedule: Q01DX001 (ip), vehicle: other) 90 % of control; (dose: 200.0 mg/kg/injection, schedule: Q01DX001 (ip), vehicle: other) 95 % of control; (dose: 400.0 mg/kg/injection, schedule: Q01DX001 (ip), vehicle: other) 92 % of control.
For `COc1ccc(Br)cc1CC=O`, the T/C is 103 % of control under setting [7]; 95 % of control and 105 % of control (dose: 177.6 mg/kg/injection, schedule: Q01DX001 (ip), vehicle: carboxymethylcellulose (CMC)); 103 % of control under setting [8]; 97 % of control and 103 % of control (dose: 266.8 mg/kg/injection, schedule: Q01DX001 (ip), vehicle: carboxymethylcellulose (CMC)); 95 % of control and 103 % of control under setting [14]; 97 % of control and 103 % of control (dose: 600.0 mg/kg/injection, schedule: Q01DX001 (ip), vehicle: carboxymethylcellulose (CMC)).
Consider `Cc1ccnc(NS(=O)(=O)c2ccc(N=Nc3c(N)nc(N)[nH]c3=O)cc2)n1`, for which the T/C under setting [7] is 103 % of control, the T/C under setting [8] was 97 % of control and the T/C under setting [14] was 103 % of control.
With `O=C(O)c1cc(C(=O)O)cc(S(=O)(=O)F)c1`, the T/C was 92 % of control under setting [1]; 91 % of control (dose: 100.0 mg/kg/injection, schedule: Q04DX003 (ip), vehicle: saline with Tween-80); 88 % of control under setting [2]; 86 % of control under setting [9]; 97 % of control under setting [3]; 99 % of control under setting [10].
Consider `COC1OC(COS(C)(=O)=O)C(O)C(O)C1OS(C)(=O)=O` (stereo not drawn), for which the T/C is 109 % of control under setting [4]; 106 % of control under setting [11]; 95 % of control under setting [5]; 102 % of control under setting [12]; 111 % of control under setting [6]; 102 % of control under setting [13].
